Reference: patent publication US5112858A, “Antibiotic, aranorosin, a microbiological process for the preparation thereof, and the use thereof as a pharmaceutical” (Hoechst Aktiengesellschaft, priority 1988, dated 1992)
In brackets after ≈: the same amount, converted by molar mass.

Experiments:
[1] = tested on: Gram-positive and Gram-negative bacteria as well as yeasts and filamentous fungi; test: Antibacterial and antifungal activity (summary statement); format: cell-based
Source text: (§1) The minimum inhibitory concentrations of the new antibiotic aranorosin required to inhibit various strains of bacteria and fungi are listed in Table I.

Solubility = format: physicochemical
[2] = tested on: malignant tumors and leukemias; test: Cytostatic activity (statement); format: cell-based; conditions: general statement, no data given
[3] = tested on: Staphylococcus aureus 20204; test: MIC against bacteria and fungi (Table I); format: cell-based; conditions: read-out: Minimum inhibitory concentration (MIC)
Source text: as §1

Aspergillus niger = test: MIC against bacteria and fungi (Table I); format: cell-based; conditions: read-out: Minimum inhibitory concentration (MIC)
Source text: as §1

[4] = tested on: Enterobacter cloacae P 99; test: MIC against bacteria and fungi (Table I); format: cell-based; conditions: P99, read-out: Minimum inhibitory concentration (MIC)
Source text: as §1

[5] = tested on: Staphylococcus aureus 209 P; test: MIC against bacteria and fungi (Table I); format: cell-based; conditions: read-out: Minimum inhibitory concentration (MIC)
Source text: as §1

Botrytis cinerea = test: MIC against bacteria and fungi (Table I); format: cell-based; conditions: read-out: Minimum inhibitory concentration (MIC)
Source text: as §1

Sarcina lutea = test: MIC against bacteria and fungi (Table I); format: cell-based; conditions: Micrococcus luteus, read-out: Minimum inhibitory concentration (MIC)
Source text: as §1

[6] = tested on: Streptococcus pyogenes 308A; test: MIC against bacteria and fungi (Table I); format: cell-based; conditions: read-out: Minimum inhibitory concentration (MIC)
Source text: as §1

Salmonella typhimurium = test: MIC against bacteria and fungi (Table I); format: cell-based; conditions: Salmonella enterica, read-out: Minimum inhibitory concentration (MIC)
Source text: as §1

[7] = tested on: Staphylococcus aureus SG 511; test: MIC against bacteria and fungi (Table I); format: cell-based; conditions: SG511, read-out: Minimum inhibitory concentration (MIC)
Source text: as §1

E. coli DC 2 = test: MIC against bacteria and fungi (Table I); format: cell-based; conditions: Escherichia coli, DC2, read-out: Minimum inhibitory concentration (MIC)
Source text: as §1

[8] = tested on: Klebsiella aerogenes 1082 E; test: MIC against bacteria and fungi (Table I); format: cell-based; conditions: read-out: Minimum inhibitory concentration (MIC)
Source text: as §1

[9] = tested on: Klebsiella aerogenes 1522 E; test: MIC against bacteria and fungi (Table I); format: cell-based; conditions: read-out: Minimum inhibitory concentration (MIC)
Source text: as §1

Saccaromyces cerevisiae = test: MIC against bacteria and fungi (Table I); format: cell-based; conditions: read-out: Minimum inhibitory concentration (MIC)
Source text: as §1

[10] = tested on: Pseudomonas aeruginosa 1771 M; test: MIC against bacteria and fungi (Table I); format: cell-based; conditions: read-out: Minimum inhibitory concentration (MIC)
Source text: as §1

E. coli DC O = test: MIC against bacteria and fungi (Table I); format: cell-based; conditions: Escherichia coli, read-out: Minimum inhibitory concentration (MIC)
Source text: as §1

E. coli 1507 E = test: MIC against bacteria and fungi (Table I); format: cell-based; conditions: Escherichia coli, read-out: Minimum inhibitory concentration (MIC)
Source text: as §1

Penicillium italicum = test: MIC against bacteria and fungi (Table I); format: cell-based; conditions: read-out: Minimum inhibitory concentration (MIC)
Source text: as §1

Candida albicans = test: MIC against bacteria and fungi (Table I); format: cell-based; conditions: read-out: Minimum inhibitory concentration (MIC)
Source text: as §1

E. coli 055 = test: MIC against bacteria and fungi (Table I); format: cell-based; conditions: Escherichia coli, read-out: Minimum inhibitory concentration (MIC)
Source text: as §1

E. coli TEM = test: MIC against bacteria and fungi (Table I); format: cell-based; conditions: Escherichia coli, read-out: Minimum inhibitory concentration (MIC)
Source text: as §1

Microspora gypseum = test: MIC against bacteria and fungi (Table I); format: cell-based; conditions: read-out: Minimum inhibitory concentration (MIC)
Source text: as §1

[11] = tested on: Streptococcus pyogenes 77 A; test: MIC against bacteria and fungi (Table I); format: cell-based; conditions: read-out: Minimum inhibitory concentration (MIC)
Source text: as §1

[12] = tested on: Staphylococcus aureus R 85; test: MIC against bacteria and fungi (Table I); format: cell-based; conditions: R85, read-out: Minimum inhibitory concentration (MIC)
Source text: as §1

[13] = tested on: Pseudomonas aeruginosa ATCC 9027; test: MIC against bacteria and fungi (Table I); format: cell-based; conditions: ATCC9027, read-out: Minimum inhibitory concentration (MIC)
Source text: as §1

E. coli Ese 2231 = test: MIC against bacteria and fungi (Table I); format: cell-based; conditions: Escherichia coli, ESE2231, read-out: Minimum inhibitory concentration (MIC)
Source text: as §1

[14] = tested on: Staphylococcus aureus 285; test: MIC against bacteria and fungi (Table I); format: cell-based; conditions: read-out: Minimum inhibitory concentration (MIC)
Source text: as §1

Streptococcus faecalis = test: MIC against bacteria and fungi (Table I); format: cell-based; conditions: Enterococcus faecalis, read-out: Minimum inhibitory concentration (MIC)
Source text: as §1

[15] = tested on: Pseudomonas aeruginosa 1771; test: MIC against bacteria and fungi (Table I); format: cell-based; conditions: read-out: Minimum inhibitory concentration (MIC)
Source text: as §1

Cercospora beticola = test: MIC against bacteria and fungi (Table I); format: cell-based; conditions: read-out: Minimum inhibitory concentration (MIC)
Source text: as §1

[16] = tested on: Enterobacter cloacae 1321 E; test: MIC against bacteria and fungi (Table I); format: cell-based; conditions: read-out: Minimum inhibitory concentration (MIC)
Source text: as §1

Bacillus subtilis = test: MIC against bacteria and fungi (Table I); format: cell-based; conditions: read-out: Minimum inhibitory concentration (MIC)
Source text: as §1

[17] = tested on: Pseudomonas aeruginosa 1592 E; test: MIC against bacteria and fungi (Table I); format: cell-based; conditions: read-out: Minimum inhibitory concentration (MIC)
Source text: as §1

[18] = tested on: Staphylococcus aureus 503; test: MIC against bacteria and fungi (Table I); format: cell-based; conditions: read-out: Minimum inhibitory concentration (MIC)
Source text: as §1

With `CCCCCCC(C)/C=C(C)/C=C/C(=O)NC1CC2(OC1O)C1OC1C(=O)C1OC12` (stereo not shown) [aranorosin] the “effectiveness against bacteria, yeasts and filamentous fungi” value ([1]; conclusion from Table I) was “effective against Gram-positive and Gram-negative bacteria as well as yeasts and filamentous fungi”, the “bactericidal and fungicidal properties” value ([1]; general statement) was “has bactericidal and fungicidal properties” and the Solubility (Solubility; in benzene) was “sparingly soluble”. For the same compound, the Solubility (Solubility; in diethyl ether, chloroform, acetone, ethyl acetate, dimethyl sulfoxide and methanol) was “soluble”, the Solubility (Solubility; in petroleum ether) was “Insoluble” and the Solubility (Solubility; in water) was “Insoluble”. The cytostatic properties [2] was “has cytostatic properties”, the MIC [3] was 1.5 µg/mL (≈ 3.58 µM) and the MIC (Aspergillus niger) was 7.5 µg/mL (≈ 17.9 µM). For the same compound, the MIC [4] was 100 µg/mL (≈ 238 µM), the MIC [5] was 1.5 µg/mL (≈ 3.58 µM) and the MIC (Botrytis cinerea) was 30 µg/mL (≈ 71.5 µM). It also gave an MIC (Sarcina lutea) of 1.5 µg/mL (≈ 3.58 µM), an MIC [6] of 0.78 µg/mL (≈ 1.86 µM) and an MIC (Salmonella typhimurium) of 50 µg/mL (≈ 119 µM). The MIC [7] was 0.78 µg/mL (≈ 1.86 µM), the MIC (E. coli DC 2) was 25 µg/mL (≈ 59.6 µM) and the MIC [8] was 50 µg/mL (≈ 119 µM). The MIC [9] was 100 µg/mL (≈ 238 µM), the MIC (Saccaromyces cerevisiae) was 500 µg/mL (≈ 1190 µM) and the MIC [10] was 50 µg/mL (≈ 119 µM). For the same compound, the MIC (E. coli DC O) was 100 µg/mL (≈ 238 µM), the MIC (E. coli 1507 E) was 100 µg/mL (≈ 238 µM) and the MIC (Penicillium italicum) was 30 µg/mL (≈ 71.5 µM). It also gave an MIC (Candida albicans) of 30 µg/mL (≈ 71.5 µM), an MIC (E. coli 055) of 100 µg/mL (≈ 238 µM) and an MIC (E. coli TEM) of 100 µg/mL (≈ 238 µM). For the same compound, the MIC (Microspora gypseum) was 3 µg/mL (≈ 7.15 µM), the MIC [11] was 0.78 µg/mL (≈ 1.86 µM) and the MIC [12] was 1.5 µg/mL (≈ 3.58 µM). It also gave an MIC [13] of over 100 µg/mL, an MIC (E. coli Ese 2231) of over 200 µg/mL and an MIC [14] of 0.78 µg/mL (≈ 1.86 µM). For the same compound, the MIC (Streptococcus faecalis) was 3 µg/mL (≈ 7.15 µM), the MIC [15] was over 100 µg/mL and the MIC (Cercospora beticola) was 3 µg/mL (≈ 7.15 µM). For the same compound, the MIC [16] was 100 µg/mL (≈ 238 µM), the MIC (Bacillus subtilis) was 1.5 µg/mL (≈ 3.58 µM) and the MIC [17] was over 100 µg/mL. The MIC [18] was 0.78 µg/mL (≈ 1.86 µM).
